According to patent US20070037887A1, “Blockade of mtor to prevent a hormonal adaptive response” (University of Virginia Patent Foundation, priority 2003, published 2007):

Key:
[1] = system: MCF-7 cells; assay: Apoptosis ELISA (Cell Death Detection Kit), MCF-7 cells; assay type: cell-based, human; conditions: three day treatment
Protocol: FIG. 6 is a bar graph portraying data representing the induction of apoptosis in MCF-7 and LTED cells by FTS. Eighty thousand MCF-7 and LTED cells were plated into each well of 12-well plates in their culture media. Two days later, the cells were treated with FTS for 3 days. Apoptosis was measured using a Cell Death Detection Kit from Roche Molecular Biochemicals. Parallel plates subjected to identical treatment were prepared for cell counting. The results were expressed as the values of optical density at 405 nm per 10,000 cells.
Applicants postulated that these cells might also have become sensitized to the pro-apoptotic effects of estradiol. To test this hypothesis, an ELISA assay was used to assess apoptosis and to compare the effects of estradiol in wild-type and LTED cells. […] The presence of apoptosis in LTED cells was confirmed by the measurement of annexin V and the use of time-lapse microscopy.
The effect of a three day treatment with FTS on apoptosis in MCF-7 and LTED cells was examined using the ELISA assay for quantitation. […] LTED cells were much more sensitive than MCF-7 cells to the apoptotic effects of FTS.

[2] = system: ERK1/2, Akt, p70S6K, PHAS-1 phosphorylation in LTED cells; assay: IGF-1 induced activation of MAP kinase, PI3 kinase and mTOR in LTED cells (Western); assay type: cell-based, human
Protocol: FIG. 9. represents data showing the effect of FTS on IGF-1 induced activation of MAP kinase, PI3 kinase, and mTOR in LTED cells. Subconfluent LTED cells grown in 60 mm dishes were serum starved for 24 h, pretreated with FTS (100 μM) or LY 294002 (LY, 20 μM) for 10, 30 or 60 min before addition of IGF-1 (20 ng/ml for 10 min). Cells were then harvested and cell lysates prepared. Phosphorylated and total kinases were detected by Western analysis using specific antibodies.
LTED cells were pretreated with FTS (100 μM) or LY 294002 (20 μM) for 10, 30, and 60 min and then IGF-1 (20 ng/ml) was added for 10 min. […] The inhibitory effect was seen as early as 10 minutes of treatment whereas FTS induced no effect. In marked contrast, both FTS and Ly inhibited the phosphorylation of 4E BP-1, particularly at the 60 minute time point. (FIG. 9).

[3] = system: JNK; assay: JNK activation in LTED cells cultured in vitro; assay type: cell-based, human
Excerpt: FIGS. 17A & 17B represent data showing the effects of FTS on JNK activation in LETD cells cultured in vitro.
FIGS. 17A & 17B represent data showing the effects of FTS on JNK activation in LTED cells cultured in vitro. […] JNK activation has been reported to be associated with apoptosis.

[4] = system: mTOR-mLST8; assay: Coimmunoprecipitation of mLST8 with mTOR, compound added to cell extracts; assay type: binding; conditions: only at the highest concentrations investigated
Protocol: FIGS. 13A & 13B represent data showing FTS promotes raptor dissociation and inhibits mTOR activity in cell extracts. 293T cells were transfected with pcDNA3 alone (Vec.) or with a combination of pcDNA3AU1-mTOR, pcDNA33HA-Raptor, and pcDNA33HA-mLST8. Extracts of the cells were incubated with increasing concentrations of FTS before AU1-mTOR was immunoprecipated. Samples of the immune complexes were incubated with [γ-^32P]ATP and recombinant [His^6]PHAS-I, then subjected to SDS-PAGE and transferred to an immobilon membrane. After obtaining a phosphorimage of the membrane to detect ^32P-PHAS-I, the membrane was immunoblotted with PThr^36/45 antibodies. […]
FIGS. 14A & 14B represent data showing the relative effects of increasing concentrations of FTS and GTS on mTOR activity and the association of mTOR and raptor. Samples of extracts from 293T cells overexpressing AU1-mTOR, HA-raptor, and HA-mLST8 were incubated for 1 h with increasing concentrations of FTS (●, ▴, ▪) or GTS (∘, Δ, □) before immunoprecipitations were conducted with anti-AU1 antibodies. mTOR kinase activity (●, ∘) was determined by measuring ^32P incorporation into [His^6]PHAS-I in immune complex kinases assays performed with [γ-^32P]ATP (see FIG. 14A). The relative amounts of HA-raptor (▴, Δ) and HA-mLST8 (▪, □) that coimmunoprecipitated with AU1-mTOR were determined after immunoblotting with anti-HA antibodies (see FIG. 14B). […]

SMILES: CC(C)=CCC/C(C)=C/CC/C(C)=C/CSc1ccccc1C(=O)O [FTS, farnesylthiosalicylic acid]
- induction of apoptosis ([1]; FTS 75 μM): dramatic increase in apoptosis
- induction of apoptosis ([1]; FTS 20 and 50 μM): did not induce apoptosis
- IGF-1 induced ERK1/2 phosphorylation ([2]; FTS 100 μM or LY 294002 20 μM for 10, 30, 60 min, IGF-1 20 ng/ml 10 min): Neither FTS nor LY 294002 inhibited
- phosphorylation of 4E BP-1 ([2]; FTS 100 μM or LY 294002 20 μM, particularly at 60 minute time point): inhibited
- IGF-1 induced phosphorylation of Akt at Ser473 and p70S6K at Thr389 ([2]; FTS 100 μM or LY 294002 20 μM, IGF-1 20 ng/ml 10 min): no effect
- JNK activation [3]: stimulates JNK activation
- amounts of transfected and endogenous mLST8 that coimmunoprecipitated with mTOR [4]: modestly decreased
